# Assay results: PubChem BioAssay (NCI)
#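 Method: 48-hour compound exposure of cells in 96-well plates, five concentrations, linear interpolation of endpoints. At the GI50, growth is halved. At the TGI there is no net growth.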
# Assays:
# Assay in all cases: NCI tumour cell line growth inhibition, 48 h
# A498 renal = system: A498 renal
# ACHN renal = system: ACHN renal
# BT-549 breast = system: BT-549 breast
# CAKI-1 renal = system: CAKI-1 renal
# CCRF-CEM leukemia = system: CCRF-CEM leukemia
# COLO 205 colon = system: COLO 205 colon
# DU-145 prostate = system: DU-145 prostate
# EKVX NSCLC = system: EKVX NSCLC
# HCC-2998 colon = system: HCC-2998 colon
# HCT-116 colon = system: HCT-116 colon
# HCT-15 colon = system: HCT-15 colon
# HL-60(TB) leukemia = system: HL-60(TB) leukemia
# HOP-92 NSCLC = system: HOP-92 NSCLC
# HS 578T breast = system: HS 578T breast
# HT29 colon = system: HT29 colon
# IGROV1 ovarian = system: IGROV1 ovarian
# K-562 leukemia = system: K-562 leukemia
# KM12 colon = system: KM12 colon
# LOX IMVI melanoma = system: LOX IMVI melanoma
# M14 melanoma = system: M14 melanoma
# MALME-3M melanoma = system: MALME-3M melanoma
# MCF7 breast = system: MCF7 breast
# MDA-MB-231 breast = system: MDA-MB-231 breast
# MDA-MB-435 = system: MDA-MB-435
# MOLT-4 leukemia = system: MOLT-4 leukemia
# NCI-H226 lung = system: NCI-H226 lung
# NCI-H23 lung = system: NCI-H23 lung
# NCI-H460 lung = system: NCI-H460 lung
# NCI-H522 lung = system: NCI-H522 lung
# NCI/ADR-RES ovarian = system: NCI/ADR-RES ovarian
# OVCAR-3 ovarian = system: OVCAR-3 ovarian
# OVCAR-4 ovarian = system: OVCAR-4 ovarian
# OVCAR-5 ovarian = system: OVCAR-5 ovarian
# PC-3 prostate = system: PC-3 prostate
# SF-268 CNS = system: SF-268 CNS
# SF-295 CNS = system: SF-295 CNS
# SF-539 CNS = system: SF-539 CNS
# SK-MEL-2 melanoma = system: SK-MEL-2 melanoma
# SK-MEL-28 melanoma = system: SK-MEL-28 melanoma
# SK-MEL-5 melanoma = system: SK-MEL-5 melanoma
# SK-OV-3 ovarian = system: SK-OV-3 ovarian
# SN12C renal = system: SN12C renal
# SNB-19 CNS = system: SNB-19 CNS
# SNB-75 CNS = system: SNB-75 CNS
# SW-620 colon = system: SW-620 colon
# T-47D breast = system: T-47D breast
# TK-10 renal = system: TK-10 renal
# U251 CNS = system: U251 CNS
# UACC-257 melanoma = system: UACC-257 melanoma
# UACC-62 melanoma = system: UACC-62 melanoma
# UO-31 renal = system: UO-31 renal
structure (smiles),measurement,setting,value
c1ccc(C2CC(c3cccc(Nc4ccncc4)c3)=NN2c2ccccc2)cc1 (configuration not stated),GI50,A498 renal,1420 nM
same,TGI,A498 renal,3030 nM
same,GI50,ACHN renal,1690 nM
same,TGI,ACHN renal,3050 nM
same,GI50,BT-549 breast,1880 nM
same,TGI,BT-549 breast,3870 nM
same,GI50,CAKI-1 renal,1390 nM
same,TGI,CAKI-1 renal,2740 nM
same,GI50,CCRF-CEM leukemia,2090 nM
same,TGI,CCRF-CEM leukemia,5680 nM
same,GI50,COLO 205 colon,1900 nM
same,TGI,COLO 205 colon,3860 nM
same,GI50,DU-145 prostate,1950 nM
same,TGI,DU-145 prostate,4020 nM
same,GI50,EKVX NSCLC,1610 nM
same,TGI,EKVX NSCLC,3420 nM
same,GI50,HCC-2998 colon,1580 nM
same,TGI,HCC-2998 colon,2960 nM
same,GI50,HCT-116 colon,1660 nM
same,TGI,HCT-116 colon,3250 nM
same,GI50,HCT-15 colon,1590 nM
same,TGI,HCT-15 colon,3180 nM
same,GI50,HL-60(TB) leukemia,1650 nM
same,TGI,HL-60(TB) leukemia,3730 nM
same,GI50,HOP-92 NSCLC,1450 nM
same,TGI,HOP-92 NSCLC,2950 nM
same,GI50,HS 578T breast,1550 nM
same,TGI,HS 578T breast,3470 nM
same,GI50,HT29 colon,1690 nM
same,TGI,HT29 colon,3490 nM
same,GI50,IGROV1 ovarian,1680 nM
same,TGI,IGROV1 ovarian,3180 nM
same,GI50,K-562 leukemia,2020 nM
same,TGI,K-562 leukemia,6760 nM
same,GI50,KM12 colon,1740 nM
same,TGI,KM12 colon,3440 nM
same,GI50,LOX IMVI melanoma,1660 nM
same,TGI,LOX IMVI melanoma,3050 nM
same,GI50,M14 melanoma,1690 nM
same,TGI,M14 melanoma,3390 nM
same,GI50,MALME-3M melanoma,1570 nM
same,TGI,MALME-3M melanoma,3020 nM
same,GI50,MCF7 breast,1610 nM
same,TGI,MCF7 breast,3290 nM
same,GI50,MDA-MB-231 breast,1610 nM
same,TGI,MDA-MB-231 breast,3000 nM
same,GI50,MDA-MB-435,1690 nM
same,TGI,MDA-MB-435,3200 nM
same,GI50,MOLT-4 leukemia,2020 nM
same,TGI,MOLT-4 leukemia,4830 nM
same,GI50,NCI-H226 lung,8390 nM
same,TGI,NCI-H226 lung,28700 nM
same,GI50,NCI-H23 lung,1730 nM
same,TGI,NCI-H23 lung,3350 nM
same,GI50,NCI-H460 lung,1720 nM
same,TGI,NCI-H460 lung,3250 nM
same,GI50,NCI-H522 lung,1620 nM
same,TGI,NCI-H522 lung,3280 nM
same,GI50,NCI/ADR-RES ovarian,1740 nM
same,TGI,NCI/ADR-RES ovarian,3540 nM
same,GI50,OVCAR-3 ovarian,1800 nM
same,TGI,OVCAR-3 ovarian,3540 nM
same,GI50,OVCAR-4 ovarian,1720 nM
same,TGI,OVCAR-4 ovarian,3430 nM
same,GI50,OVCAR-5 ovarian,1830 nM
same,TGI,OVCAR-5 ovarian,3650 nM
same,GI50,PC-3 prostate,1690 nM
same,TGI,PC-3 prostate,3580 nM
same,GI50,SF-268 CNS,1790 nM
same,TGI,SF-268 CNS,3650 nM
same,GI50,SF-295 CNS,1720 nM
same,TGI,SF-295 CNS,3130 nM
same,GI50,SF-539 CNS,1710 nM
same,TGI,SF-539 CNS,3120 nM
same,GI50,SK-MEL-2 melanoma,1870 nM
same,TGI,SK-MEL-2 melanoma,3460 nM
same,GI50,SK-MEL-28 melanoma,1760 nM
same,TGI,SK-MEL-28 melanoma,3190 nM
same,GI50,SK-MEL-5 melanoma,1770 nM
same,TGI,SK-MEL-5 melanoma,3220 nM
same,GI50,SK-OV-3 ovarian,2380 nM
same,TGI,SK-OV-3 ovarian,5490 nM
same,GI50,SN12C renal,1650 nM
same,TGI,SN12C renal,3060 nM
same,GI50,SNB-19 CNS,1630 nM
same,TGI,SNB-19 CNS,3000 nM
same,GI50,SNB-75 CNS,1320 nM
same,TGI,SNB-75 CNS,2880 nM
same,GI50,SW-620 colon,1650 nM
same,TGI,SW-620 colon,3270 nM
same,GI50,T-47D breast,2000 nM
same,TGI,T-47D breast,4700 nM
same,GI50,TK-10 renal,1860 nM
same,TGI,TK-10 renal,3600 nM
same,GI50,U251 CNS,1870 nM
same,TGI,U251 CNS,3940 nM
same,GI50,UACC-257 melanoma,1940 nM
same,TGI,UACC-257 melanoma,4150 nM
same,GI50,UACC-62 melanoma,1670 nM
same,TGI,UACC-62 melanoma,3040 nM
same,GI50,UO-31 renal,1480 nM
same,TGI,UO-31 renal,2800 nM
